Experiments:
Format in all cases: in vivo
[1] = system: Boll weevil (Anthonomus grandis); assay: Boll weevil microtiter plate diet test; settings: 120 h, sprayed onto insect diet, egg and larval mortality after 5 days, read-out: mortality in comparison with untreated controls
Protocol: B.8 Boll weevil (Anthonomus grandis)
For evaluating control of boll weevil (Anthonomus grandis) the test unit consisted of 96-well-microtiter plates containing an insect diet and 20-30 A. grandis eggs.
(§1) The compounds were formulated using a solution containing 75% v/v water and 25% v/v DMSO. Different concentrations of formulated compounds were sprayed onto the insect diet at 5 μl, using a custom built micro atomizer, at two replications.
After application, microtiter plates were incubated at about 25±1° C. and about 75±5% relative humidity for 5 days. Egg and larval mortality was then visually assessed.

[2] = system: Green Peach Aphid (Myzus persicae); assay: Green peach aphid spray test on bell pepper plants; settings: 120 h, sprayed infested bell pepper plants, after 5 days, read-out: mortality in comparison with untreated controls
Text: B.9 Green Peach Aphid (Myzus persicae)
(§2) The active compounds were formulated in cyclohexanone as a 10,000 ppm solution supplied in tubes. The tubes were inserted into an automated electrostatic sprayer equipped with an atomizing nozzle and they served as stock solutions for which lower dilutions were made in 50% acetone:50% water (v/v). A nonionic surfactant (Kinetic®) was included in the solution at a volume of 0.01% (v/v).
Bell pepper plants at the first true-leaf stage were infested prior to treatment by placing heavily infested leaves from the main colony on top of the treatment plants. Aphids were allowed to transfer overnight to accomplish an infestation of 30-50 aphids per plant and the host leaves were removed. The infested plants were then sprayed by an automated electrostatic plant sprayer equipped with an atomizing spray nozzle. The plants were dried in the sprayer fume hood, removed, and then maintained in a growth room under fluorescent lighting in a 24-hr photoperiod at about 25° C. and about 20-40% relative humidity. Aphid mortality on the treated plants, relative to mortality on untreated control plants, was determined after 5 days.

[3] = system: Tobacco budworm (Heliothis virescens); assay: Tobacco budworm foliar spray test on cotton plants; settings: 96 h, sprayed cotton plants, larvae, 4 days after treatment, read-out: mortality in comparison with untreated controls
Protocol: B.7 Tobacco budworm (Heliothis virescens) I
as §2
Cotton plants were grown 2 plants to a pot and selected for treatment at the cotyledon stage. Test solutions were sprayed onto the foliage by an automated electrostatic plant sprayer equipped with an atomizing spray nozzle. The plants were dried in the sprayer fume hood and then removed from the sprayer. Each pot was placed into perforated plastic bags with a zip closure. About 10 to 11 budworm larvae were placed into the bag and the bags zipped closed. Test plants were maintained in a growth room at about 25° C. and about 20-40% relative humidity for 4 days, avoiding direct exposure to fluorescent light (24 hour photoperiod) to prevent trapping of heat inside the bags. Mortality and reduced feeding were assessed 4 days after treatment, compared to untreated control plants.

[4] = system: Vetch aphid (Megoura viciae); assay: Vetch aphid broad bean leaf disk microtiter test; settings: foliar, 120 h, sprayed broad bean leaf disks, adult aphids, 5 days, read-out: mortality in comparison with untreated controls
Protocol: B.6 Vetch aphid (Megoura viciae)
For evaluating control of vetch aphid (Megoura viciae) through contact or systemic means the test unit consisted of 24-well-microtiter plates containing broad bean leaf disks. The compounds were formulated using a solution containing 75% v/v water and 25% v/v DMSO. Different concentrations of formulated compounds were sprayed onto the leaf disks at 2.5 μl, using a custom built micro atomizer, at two replications.
After application, the leaf disks were air-dried and 5-8 adult aphids placed on the leaf disks inside the microtiter plate wells. The aphids were then allowed to suck on the treated leaf disks and incubated at about 23±1° C. and about 50±5% relative humidity for 5 days. Aphid mortality and fecundity was then visually assessed.

[5] = system: Cowpea aphid (aphis craccivora); assay: Cowpea aphid spray test on potted cowpea plants; settings: sprayed cowpea plants, assessed after 72 hours, read-out: mortality in comparison with untreated controls
Protocol: B.1 Cowpea aphid (aphis craccivora)
The active compound was dissolved at the desired concentration in a mixture of 1:1 (vol:vol) distilled water:acetone. Surfactant (Alkamuls® EL 620) was added at a rate of 0.1% (vol/vol). The test solution was prepared at the day of use.
Potted cowpea plants were colonized with approximately 50-100 aphids of various stages by manually transferring a leaf tissue cut from infested plant 24 hours before application. Plants were sprayed after the pest population had been recorded. Treated plants were maintained on light carts at about 28° C. Percent mortality was assessed after 72 hours.

[6] = system: Mediterranean fruitfly (Ceratitis capitata); assay: Mediterranean fruitfly microtiter plate diet test; settings: 120 h, sprayed onto insect diet, egg and larval mortality after 5 days, read-out: mortality in comparison with untreated controls
Protocol: B.3 Mediterranean fruitfly (Ceratitis capitata)
For evaluating control of Mediterranean fruitfly (CeratitiS capitate) the test unit consisted of microtiter plates containing an insect diet and 50-80 C. capitata eggs.
as §1
After application, microtiter plates were incubated at about 28±1° C. and about 80±5% relative humidity for 5 days. Egg and larval mortality was then visually assessed.

[7] = system: Diamond back moth (plutella xylostella); assay: Diamond back moth cabbage leaf-dip test; settings: dipped cabbage leaves, 3rd instar larvae, 72 hours after treatment, read-out: mortality in comparison with untreated controls
Protocol: B.2 Diamond back moth (plutella xylostella)
The active compound was dissolved at the desired concentration in a mixture of 1:1 (vol:vol) distilled water:acteone. Surfactant (Alkamuls® EL 620) was added at a rate of 0.1% (vol/vol). The test solution was prepared at the day of use.
Leaves of cabbage were dipped in test solution and air-dried. Treated leaves were placed in petri dishes lined with moist filter paper and inoculated with ten 3rd instar larvae. Mortality was recorded 72 hours after treatment. Feeding damages were also recorded using a scale of 0-100%.

[8] = system: Orchid thrips (dichromothrips corbetti); assay: Orchid thrips floral-immersion test; settings: dipped orchid flowers, adult thrips, 72 hours after treatment, read-out: mortality in comparison with untreated controls
Protocol: B.4 Orchid thrips (dichromothrips corbetti)
Dichromothrips corbetti adults used for bioassay were obtained from a colony maintained continuously under laboratory conditions. For testing purposes, the test compound was diluted in a 1:1 mixture of acetone:water (vol:vol), plus 0.01% vol/vol Alkamuls® EL 620 surfactant.
Thrips potency of each compound was evaluated by using a floral-immersion technique. Plastic petri dishes were used as test arenas. All petals of individual, intact orchid flowers were dipped into treatment solution and allowed to dry. Treated flowers were placed into individual petri dishes along with about 20 adult thrips. The petri dishes were then covered with lids. All test arenas were held under continuous light and a temperature of about 28° ° C. for duration of the assay. After 3 days, the numbers of live thrips were counted on each flower, and along inner walls of each petri dish. The percent mortality was recorded 72 hours after treatment.

CNC(=O)c1cc(/C=N/OC)cc(C)c1NC(=O)c1ccc(C(F)(F)F)cc1-c1ncccc1Cl [Compound 1-1, 2-[[2-(3-chloro-2-pyridyl)-4-(trifluoromethyl)benzoyl]amino]-5-[(E)-methoxyiminomethyl]-N,3-dimethyl-benzamide]
> 75%: mortality at 2500 ppm [1] | mortality at 2500 ppm [2] | mortality at 2500 ppm [3] | mortality at 2500 ppm [4] | mortality at 500 ppm [5] | mortality at 2500 ppm [6] | mortality at 500 ppm [7] | mortality at 500 ppm [8]

CNC(=O)c1cc(-n2cncn2)cc(C)c1NC(=O)c1ccc(C(F)(F)F)cc1-c1ncccc1Cl [Compound 1-2, 2-[[2-(3-chloro-2-pyridyl)-4-(trifluoromethyl)benzoyl]amino]N,3-dimethyl-5-(1,2,4-triazol-1-yl)benzamide]
> 75%: mortality at 2500 ppm [1] | mortality at 2500 ppm [2] | mortality at 2500 ppm [3] | mortality at 2500 ppm [4] | mortality at 500 ppm [5] | mortality at 2500 ppm [6] | mortality at 500 ppm [8]

CNC(=O)c1cc(/C=N/NC(N)=O)cc(C)c1NC(=O)c1ccc(C(F)(F)F)cc1-c1ncccc1Cl [Compound 1-3, 5-[(E)-(carbamoylhydrazono)methyl]-2-[[2-(3-chloro-2-pyridyl)-4-(trifluoromethyl)benzoyl]amino]-N,3-dimethyl-benzamide]
> 75%: mortality at 2500 ppm [2] | mortality at 2500 ppm [3] | mortality at 500 ppm [5]
